Measurements reported in PubChem BioAssay (NCI).
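A five-concentration, 48-hour dose response in 96-well plates underlies each endpoint, interpolated linearly between surrounding concentrations. Definition used: TGI = concentration required for complete inhibition of growth.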

Columns and labels:
Test in all cases: NCI tumour cell line growth inhibition, 48 h
[1] = test system: DU-145 prostate
[2] = test system: HOP-62 NSCLC
[3] = test system: TK-10 renal
[4] = test system: SNB-19 CNS
[5] = test system: SK-MEL-2 melanoma
[6] = test system: OVCAR-3 ovarian
[7] = test system: HCC-2998 colon
[8] = test system: LOX IMVI melanoma
[9] = test system: BT-549 breast
[10] = test system: RXF 393 renal
[11] = test system: A498 renal
[12] = test system: HCT-116 colon
[13] = test system: OVCAR-8 ovarian
[14] = test system: OVCAR-5 ovarian
[15] = test system: SF-268 CNS
[16] = test system: NCI-H522 lung
[17] = test system: MALME-3M melanoma
[18] = test system: NCI-H226 lung
[19] = test system: HS 578T breast
[20] = test system: HT29 colon
[21] = test system: ACHN renal
[22] = test system: T-47D breast
[23] = test system: UACC-62 melanoma
[24] = test system: SK-OV-3 ovarian
[25] = test system: K-562 leukemia
[26] = test system: COLO 205 colon
[27] = test system: SF-539 CNS
[28] = test system: SK-MEL-28 melanoma
[29] = test system: IGROV1 ovarian
[30] = test system: 786-0 renal
[31] = test system: SK-MEL-5 melanoma
[32] = test system: MCF7 breast
[33] = test system: MDA-MB-231 breast
[34] = test system: KM12 colon
[35] = test system: RPMI-8226 leukemia
[36] = test system: NCI-H460 lung
[37] = test system: SW-620 colon
[38] = test system: SF-295 CNS
[39] = test system: UO-31 renal
[40] = test system: NCI/ADR-RES ovarian
[41] = test system: SNB-75 CNS
[42] = test system: OVCAR-4 ovarian
[43] = test system: M14 melanoma
[44] = test system: HCT-15 colon
[45] = test system: U251 CNS
[46] = test system: UACC-257 melanoma
[47] = test system: HOP-92 NSCLC
[48] = test system: A549 NSCLC
[49] = test system: SN12C renal
[50] = test system: SR leukemia
[51] = test system: MDA-N
[52] = test system: CCRF-CEM leukemia
[53] = test system: PC-3 prostate
[54] = test system: EKVX NSCLC
[55] = test system: MDA-MB-435
[56] = test system: NCI-H23 lung
[57] = test system: CAKI-1 renal
[58] = test system: MOLT-4 leukemia
[59] = test system: HL-60(TB) leukemia

SMILES: COC(=O)C(CNC(=O)/C=C/c1ccc(OC)c(OC)c1)NC(=O)/C=C/c1ccc(OC)c(OC)c1 (stereo not given)
- TGI [1]: > 100 µM
- TGI [2]: > 100 µM
- TGI [3]: > 100 µM
- TGI [4]: > 100 µM
- TGI [5]: > 100 µM
- TGI [6]: > 100 µM
- TGI [7]: > 100 µM
- TGI [8]: > 100 µM
- TGI [9]: > 100 µM
- TGI [10]: > 100 µM
- TGI [11]: > 100 µM
- TGI [12]: > 100 µM
- TGI [13]: > 100 µM
- TGI [14]: > 100 µM
- TGI [15]: > 100 µM
- TGI [16]: > 100 µM
- TGI [17]: > 100 µM
- TGI [18]: > 100 µM
- TGI [19]: > 100 µM
- TGI [20]: > 100 µM
- TGI [21]: > 100 µM
- TGI [22]: > 100 µM
- TGI [23]: > 100 µM
- TGI [24]: > 100 µM
- TGI [25]: > 100 µM
- TGI [26]: > 100 µM
- TGI [27]: > 100 µM
- TGI [28]: > 100 µM
- TGI [29]: > 100 µM
- TGI [30]: > 100 µM
- TGI [31]: > 100 µM
- TGI [32]: > 100 µM
- TGI [33]: > 100 µM
- TGI [34]: > 100 µM
- TGI [35]: > 100 µM
- TGI [36]: > 100 µM
- TGI [37]: > 100 µM
- TGI [38]: > 100 µM
- TGI [39]: > 100 µM
- TGI [40]: > 100 µM
- TGI [41]: > 100 µM
- TGI [42]: > 100 µM
- TGI [43]: > 100 µM
- TGI [44]: > 100 µM
- TGI [45]: > 100 µM
- TGI [46]: > 100 µM
- TGI [47]: > 100 µM
- TGI [48]: > 100 µM
- TGI [49]: > 100 µM
- TGI [50]: > 100 µM
- TGI [51]: > 100 µM
- TGI [52]: > 100 µM
- TGI [53]: > 100 µM
- TGI [54]: > 100 µM
- TGI [55]: > 100 µM
- TGI [56]: > 100 µM
- TGI [57]: > 100 µM
- TGI [58]: > 100 µM

SMILES: CCOP(=O)(OCC)Oc1c(OC)c2[nH]c(C(=O)OC)cc2c2c(C(=O)O)c[nH]c12
- TGI [1]: > 100 µM
- TGI [2]: > 100 µM
- TGI [3]: > 100 µM
- TGI [4]: > 100 µM
- TGI [5]: > 100 µM
- TGI [6]: > 100 µM
- TGI [7]: > 100 µM
- TGI [8]: > 100 µM
- TGI [9]: > 100 µM
- TGI [10]: > 100 µM
- TGI [11]: > 100 µM
- TGI [12]: > 100 µM
- TGI [13]: > 100 µM
- TGI [14]: > 100 µM
- TGI [15]: > 100 µM
- TGI [16]: > 100 µM
- TGI [17]: > 100 µM
- TGI [59]: > 100 µM
- TGI [19]: > 100 µM
- TGI [20]: > 100 µM
- TGI [21]: > 100 µM
- TGI [22]: > 100 µM
- TGI [23]: > 100 µM
- TGI [24]: > 100 µM
- TGI [25]: > 100 µM
- TGI [26]: > 100 µM
- TGI [27]: > 100 µM
- TGI [28]: > 100 µM
- TGI [29]: > 100 µM
- TGI [30]: > 100 µM
- TGI [31]: > 100 µM
- TGI [32]: > 100 µM
- TGI [33]: > 100 µM
- TGI [34]: 81.3 µM
- TGI [36]: > 100 µM
- TGI [37]: > 100 µM
- TGI [38]: > 100 µM
- TGI [39]: > 100 µM
- TGI [40]: > 100 µM
- TGI [41]: > 100 µM
- TGI [42]: > 100 µM
- TGI [43]: > 100 µM
- TGI [44]: > 100 µM
- TGI [45]: > 100 µM
- TGI [46]: > 100 µM
- TGI [47]: > 100 µM
- TGI [48]: > 100 µM
- TGI [49]: > 100 µM
- TGI [50]: > 100 µM
- TGI [51]: > 100 µM
- TGI [52]: > 100 µM
- TGI [53]: > 100 µM
- TGI [54]: > 100 µM
- TGI [55]: > 100 µM
- TGI [56]: > 100 µM
- TGI [57]: > 100 µM
- TGI [58]: > 100 µM
